In assay [1] the test system is NO production in LPS-induced macrophages (RAW 264.7). The experiment in a line: Inhibition of NO production in LPS-induced macrophages (RAW 264.7), nitrite accumulation. The format is cell-based. As to conditions: Mus musculus. The text has this: Mouse monocyte-macrophages RAW 264.7 (ATCC TIB-71) were purchased from the Chinese Academy of Science. RPMI 1640 medium, penicillin, streptomycin, and fetal bovine serum were purchased from Invitrogen (NewYork, USA). Lipopolysaccharide (LPS), DMSO, 3-(4,5-dimethylthiazol-2-yl)-2,5-diphenyl-2H-tetrazolium bromide (MTT), and hydrocortisone were obtained from Sigma Chemical Co. (Saint Louis, MO, U.S.A). RAW 264.7 cells were kept in RPMI 1640 medium supplemented with penicillin (100 U/mL), streptomycin (100 μg/mL), and 10% heat-inactivated fetal bovine serum at 37°C in a humidified incubator with 5% CO2 and 95% air. RAW 264.7 cells were passaged by trypsinization until they attained confluence and were used for assays during the exponential growth phase.
Compounds 1, 4–8 were dissolved in DMSO and were further diluted with the culture medium to give a final DMSO concentration of 0.2% in the assay. This concentration of DMSO had no significant effect on the growth of the cell line tested. The procedure of NO inhibition assay was conducted as previously reported. The level of NO was assessed by measuring the accumulation of nitrite (NO2^−) using the same method as previously reported. Cytotoxicity was measured using the 3-(4,5-dimethylthiazol-2-yl)-2.5-diphenyltetrazolium bromide (MTT) assay method. The inhibition rate was calculated based on the following equation (1).

In the next assay the test system is Diplodia natelensis. Also noted: method as in PMID 11261579. The conditions noted are these: cited from earlier work.
The test system of another assay is Pythium ultimum. Also noted: method as in PMID 11261579. As to conditions: cited from earlier work.
In another assay the test system is Fusarium cubense. Also noted: method as in PMID 11261579. As to conditions: cited from earlier work.
For the next assay, the system named is Cephalosporium gramineum. Details: method as in PMID 11261579. As to conditions: cited from earlier work.
The test system of the next assay is Fusarium solani. Also noted: method as in PMID 11261579. As to conditions: cited from earlier work.
A further assay deals with Staphyococcus aureus. Details: method as in PMID 19117486. As to conditions: Gram-positive bacterium Staphyococcus aureus; cited from earlier work.
Assay [2] deals with biosynthesis of cyclic peptide quormones in Enterococcus faecalis. As to conditions: Gram-positive bacteria Enterococcus faecalis; cited from earlier work.
In the next assay the test system is Helminthosporium sativum. Details: method as in PMID 11261579. The conditions noted are these: cited from earlier work.
Where [3] appears, read: RAW264.7, LPS-induced RAW 264.7 macrophages, read-out: NO inhibitory activity (IC50).

Read-outs that look alike come from different tables or passages of the source.

The IC50 is the point on the concentration scale where inhibition reaches its midpoint. As to `CC(=CCC12OC1C(O)C(CO)=C(C=CCCCC(C)O)C2=O)C(=O)O` (stereo not drawn) [Compound 1], in assay [1] (setting [3]), the IC50 was more than 100 µM.

Consider `CCCCC/C=C/C1=C(COC(C)=O)[C@@H](O)[C@H]2O[C@@]2(C/C=C(\C)C(=O)O)[C@H]1O` [Compound 4], for which the IC50 in assay [1] (setting [3]) was found to be 88.7 ± 6.74 µM.

`CCCCC/C=C/C1=C(CO)[C@@H](O)[C@H]2O[C@@]2(C/C=C(\C)C(=O)O)[C@H]1O` [Compound 5]: the IC50 in assay [1] (setting [3]) was more than 100 µM.

On to `CCCCC/C=C/C1=C(COC(C)=O)[C@@H](O)[C@H]2O[C@@]2(C/C=C(\C)C(=O)O)C1=O` [Compound 6], for which the concentration for half-maximal inhibition (IC50) in assay [1] (setting [3]) was 11.2 ± 0.79 µM.

Turning to `CCCCC/C=C/C1=C(CO)[C@H](O)[C@H]2O[C@@]2(C/C=C(\C)C(=O)O)C1=O` [Compound 7, Ambuic acid], the Antifungal effect result in the assay with Diplodia natelensis, in the assay with Pythium ultimum, in the assay with Fusarium cubense, in the assay on Cephalosporium gramineum, in the assay on Fusarium solani and in the assay on Helminthosporium sativum was “moderate antifungal effects” each time. The IC50 in [1] (setting [3]) worked out at 20.8 ± 1.41 µM. The Antimicrobial effect result in the assay with Staphyococcus aureus was “antimicrobial”. The “Inhibition of biosynthesis of cyclic peptide quormones” value in assay [2] is recorded as “inhibits the biosynthesis of cyclic peptide quormones”.

With `CCCCC/C=C/C1=C(CO)C(=O)C[C@](O)(C/C=C(\C)C(=O)O)[C@H]1O` [Compound 8], the IC50 in assay [1] (setting [3]) was more than 100 µM.

With `C[C@]12CCC(=O)C=C1CC[C@@H]1[C@@H]2[C@@H](O)C[C@@]2(C)[C@H]1CC[C@]2(O)C(=O)CO` [Hydrocortisone, hydrocortisone, reference compound], in assay [1] (RAW264.7, read-out: NO inhibitory activity (IC50)), the half-maximal inhibitory concentration (IC50) amounted to 53.7 ± 3.86 µM.

The values are drawn from paper PMC4437027, “New ambuic acid derivatives from the solid culture of Pestalotiopsis neglecta and their nitric oxide inhibitory activity” (Scientific Reports, 2015).
